Activity and zone of inhibition data for two compounds are collected here from ChEMBL document CHEMBL1151202, “New imidazole alkaloids from the Indonesian sponge Leucetta chagosensis” (J Nat Prod, 2004).

In one data set the test system is Artemia salina. The data set is described as follows: Toxicity in Artemia salina at 20 ug/mL. To be noted: in vivo. Format: organism-based.
In another data set the test system is Cladosporium herbarum. The data set is described as follows: Antifungal activity against Cladosporium herbarum DSM 63422 at 20 ug/disk after 24 hrs by agar plate diffusion assay. Format: functional.
For another data set, the system named is HeLa. The data set is described as follows: Cytotoxicity against human HeLa cells at 10 ug/mL by MTT assay relative to control. Format: functional.
In the next data set the test system is PC-12. The data set is described as follows: Cytotoxicity against rat PC12 cells by MTT assay. Format: functional, cell-based. A general note: Formazan colour is commonly taken as a measure of viable cells.
The next data set concerns L5178Y. The data set is described as follows: Cytotoxicity against mouse L5178Y cells at 10 ug/mL by MTT assay relative to control. Format: functional.

Calls of active or inactive are those of the source. No cut-off for these calls is given here.

For `COc1ccc(-c2c3cc(O)c(OC)cc3cc3c2[nH]c(=N)n3C)cc1` [KEALIININE A], the Activity in the data set on Artemia salina was 50%. In addition, the outcome in the data set on Cladosporium herbarum was inactive.
`COc1ccc(Cc2[nH]c(=N)n(C)c2Cc2cc(OC)c(O)c(OC)c2)cc1` [NAAMINE G]: the Activity with Artemia salina worked out at 10%; in the data set on HeLa it was 29%; with L5178Y it was 46%. In addition, in the data set on PC-12, the result was inactive. Also, the zone of inhibition at 20 µg/disc with Cladosporium herbarum (DSM 63422, 24 h, read-out: IZ) is 20 mm.
